In patent publication US20100168102A9, “Amide Derivatives as Kinase Inhibitors” (Devgen NV, priority 2005, published 2010):
Read-outs that look alike come from different tables or passages of the source.

Legend:
PKC epsilon = molecular target: T1, PKC epsilon (Homo sapiens, UniProt Q02156); assay: Biochemical assay for PKC epsilon (fluorescence polarization, Protein Kinase C Assay Kit, Red); conditions: read-out: IC50 μM PKCε
T1 construct: purchased Invitrogen P2282
T1 sequence (Q02156 1-737): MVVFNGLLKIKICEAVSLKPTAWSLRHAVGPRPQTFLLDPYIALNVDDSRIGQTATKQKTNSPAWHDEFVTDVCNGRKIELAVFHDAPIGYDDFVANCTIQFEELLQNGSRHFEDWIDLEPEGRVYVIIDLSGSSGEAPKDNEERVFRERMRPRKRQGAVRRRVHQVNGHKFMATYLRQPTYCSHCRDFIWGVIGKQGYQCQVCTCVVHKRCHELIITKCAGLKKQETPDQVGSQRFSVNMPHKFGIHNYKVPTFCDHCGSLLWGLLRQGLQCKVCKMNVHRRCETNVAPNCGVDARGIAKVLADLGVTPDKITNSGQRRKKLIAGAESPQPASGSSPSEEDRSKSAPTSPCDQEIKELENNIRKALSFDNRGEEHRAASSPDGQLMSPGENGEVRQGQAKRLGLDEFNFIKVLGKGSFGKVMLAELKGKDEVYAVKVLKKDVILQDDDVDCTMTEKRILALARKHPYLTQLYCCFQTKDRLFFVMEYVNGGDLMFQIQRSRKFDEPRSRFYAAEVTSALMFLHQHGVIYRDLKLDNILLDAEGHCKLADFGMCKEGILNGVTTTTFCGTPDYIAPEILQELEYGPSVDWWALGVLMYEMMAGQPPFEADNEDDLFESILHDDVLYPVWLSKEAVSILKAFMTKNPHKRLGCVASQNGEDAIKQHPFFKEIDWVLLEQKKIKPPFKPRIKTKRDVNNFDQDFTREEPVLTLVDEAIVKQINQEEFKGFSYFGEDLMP
Procedure: The compounds were tested for inhibition of PKC epsilon.
The inhibition assays were performed with a fluorescence polarization (FP) assay using the commercially available Protein Kinase C Assay Kit, Red, from Invitrogen (Product ID. No. P2941), essentially in accordance with the protocol supplied by the manufacturer. […] The isozyme PKC epsilon was also obtained from Invitrogen (Product ID No. P2282).
Staurosporine was used as a positive control (2 μM).
To perform the assay, 2 μl of a solution of the compound to be tested in DMSO (at each concentration) was added to 6 μl of a solution of the enzyme in 10 mM HEPES, 5 mM dithiotreitol, 0.1% Triton X-100, pH 7.4. The final concentration of the enzymes was 10 ng/ml.
After incubating for 30 minutes at room temperature, 4 μl of a mixture of ATP and the protein substrate in 60 mM HEPES (pH7.4), 15 mM MgCl2, 0.3 mM CaCl2, 0.06% NP40 was added.
After incubating for 80 minutes at room temperature, 3 μl of a mix solution of 500 mM EDTA (stop solution) and the Rhodamine-based PKC Red Tracer (from the Protein Kinase C Assay Kit) in BGG/phosphate buffer (pH7.4) with 0.02% NaN3 and 0.1% Triton X-100 was added and 5 μl of a the Anti-Phosphoserine antibody (also from the Protein Kinase C Assay Kit) in BGG/phosphate buffer (pH7.4) with 0.02% NaN3.
The results were fitted to a curve using the XL-Fit algorithm and […] were calculated for each fitted curve, again using the XL-Fit algorithm.

human ROCKα/ROCKII mix = molecular target: T2, human ROCKα/ROCKII mix (Homo sapiens, UniProt O75116); assay: Biochemical assay for ROCK (fluorescence polarization, ROCK IMAP Kit)
T2 construct: purchased Upstate Biotechnology 14-451
T2 sequence (O75116 11-552 limits assumed): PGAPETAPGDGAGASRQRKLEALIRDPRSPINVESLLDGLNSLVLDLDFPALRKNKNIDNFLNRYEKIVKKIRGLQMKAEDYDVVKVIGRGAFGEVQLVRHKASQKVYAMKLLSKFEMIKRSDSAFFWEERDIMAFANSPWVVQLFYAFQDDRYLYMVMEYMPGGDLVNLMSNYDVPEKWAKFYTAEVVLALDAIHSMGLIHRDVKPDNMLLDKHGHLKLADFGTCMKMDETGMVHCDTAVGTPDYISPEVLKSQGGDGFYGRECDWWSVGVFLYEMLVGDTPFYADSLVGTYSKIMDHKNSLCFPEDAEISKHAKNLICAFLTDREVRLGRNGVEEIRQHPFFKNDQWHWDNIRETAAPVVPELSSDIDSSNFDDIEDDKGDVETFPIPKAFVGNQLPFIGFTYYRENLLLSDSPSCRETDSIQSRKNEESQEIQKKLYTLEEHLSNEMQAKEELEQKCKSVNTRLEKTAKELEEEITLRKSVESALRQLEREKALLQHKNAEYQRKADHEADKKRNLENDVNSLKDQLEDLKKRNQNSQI
Procedure: The compounds were tested for inhibition of human ROCKα/ROCKII mix.
The inhibition assays were performed with a fluorescence polarization (FP) assay using the commercially available ROCK IMAP Kit from Molecular Devices (Product ID. No. R8093), essentially in accordance with the protocol supplied by the manufacturer. […] The enzyme mix ROCKα/ROCKII was obtained from Upstate Biotechnology (Product ID No 14-451).
In summary, the compound was screened in the wells of a 384 well plate for enzymatic inhibition with concentrations varying from 100 μM to 0.3 nM using a stepwise 3 (or 2)-fold dilution.
To perform the assay, 1 μl of a solution of the compound to be tested in DMSO (at each concentration) was added to 2 μl of a solution of the enzyme in 10 mM Tris-HCl , 10 mM MgCl2, 0.1% BSA, 0.05% NaN3, pH 7.2. The final concentration of the enzyme was 2.6 nM.
After incubating for 30 minutes at room temperature, 2 μl of a mixture of ATP and the protein substrate in 10 mM Tris-HCl, 10 mM MgCl2, 0.1% BSA, 0.05% NaN3, pH 7.2 was added. The final concentration of the ATP was 10 μM and final concentration of protein substrate was 0.2 μM.
After incubating for 60 minutes at room temperature, 12 μl of the IMAP Binding Solution (mix of the IMAP Binding Buffer A (1×) and the IMAP Binding Reagent (from the ROCK IMAP kit)) was added.
The mixture thus obtained (total volume: 17 μl) was incubated for 60 minutes at room temperature, upon which the fluorescence polarization was measured using an automated plate reader (Perkin Elmer, Model Envision 2100-0010 HTS) with FP filters: excitation filter FITC FP 480 and emission filters FITC FP P-pol 535 and FITC FP S-pol 535 (Perkin-Elmer). The results were fitted to a curve using the XL-Fit algorithm and IC50 values were calculated for each fitted curve, again using the XL-Fit algorithm.

[1] = compounds of Formula XIV, Table 3
[2] = Table 2, compounds of Formula XIII

Row | Substance | IC50 (PKC epsilon) | IC50 (human ROCKα/ROCKII mix) | IC50 (PKC epsilon; [1]) | IC50 (human ROCKα/ROCKII mix; [1]) | also measured
1 | 4-(1-Amino-2-{[2-(4-bromo- phenyl)-acetyl]-methyl- amino}-ethyl)- N-pyridin-4-yl-benzamide [Compound 457] | 5 to 50 µM | 0.5 to 5 µM | – | – | –
2 | 4-(1-Amino-2-{[2-(4-chloro- phenyl)-3-methyl-butyryl]- methyl- amino}-ethyl)- N-pyridin-4-yl-benzamide [Compound 461] | 5 to 50 µM | 0.5 to 5 µM | – | – | –
3 | 4-(1-Amino-2-{[2-(4-chloro- phenyl)-acetyl]-methyl- amino}-ethyl)- N-pyridin-4-yl-benzamide [Compound 460] | 5 to 50 µM | 0.5 to 5 µM | – | – | –
4 | 4-(1-Amino-2-{[2-(4-fluoro- phenyl)-acetyl]-methyl- amino}-ethyl)- N-pyridin-4-yl-benzamide [Compound 471] | 5 to 50 µM | 0.5 to 5 µM | – | – | –
5 | 4-(1-Amino-2-{[2-(5-bromo- pyridin-3-yl)-acetyl]-methyl- amino}-ethyl)- N-pyridin-4-yl-benzamide [Compound 442] | 5 to 50 µM | 0.5 to 5 µM | – | – | –
6 | 4-(1-Amino-2-{methyl-[2-(2- phenyl-thiazol-4-yl)-acetyl]- amino}-ethyl)- N-pyridin-4-yl-benzamide [Compound 445] | 5 to 50 µM | 0.5 to 5 µM | – | – | –
7 | 4-(1-amino-2- cyclohexylcarbamoyl-ethyl)- N-pyridin-4-yl-benzamide [Compound 172] | – | – | 0.5 to 5 µM | 0.05 to 0.5 µM | –
8 | 4-(1-amino-2-benzoylamino-ethyl)- N-pyridin-4-yl-benzamide [Compound 69] | – | – | – | – | IC50 (PKC epsilon; [2]): 0.5 to 5 µM; IC50 (human ROCKα/ROCKII mix; [2]): 0.05 to 0.5 µM
9 | 4-[1-Amino-2- (benzo[1,3]dioxol-5-yl- ethylcarbamoyl)-ethyl]-N- pyridin-4-yl-benzamide [Compound 296] | – | – | 5 to 50 µM | 0.05 to 0.5 µM | –
10 | 4-[1-Amino-2-(1-(R)-p-tolyl- propylcarbamoyl)-ethyl]-N- pyridin-4-yl-benzamide [Compound 220] | – | – | 0.5 to 5 µM | 0.05 to 0.5 µM | –
11 | 4-[1-Amino-2-(1-(S)-p-tolyl- propylcarbamoyl)-ethyl]-N- pyridin-4-yl-benzamide [Compound 219] | – | – | 0.5 to 5 µM | 0.05 to 0.5 µM | –
12 | 4-[1-Amino-2-(2,4- dimethoxy- benzylcarbamoyl)-ethyl]- N-pyridin-4-yl-benzamide [Compound 241] | – | – | 0.5 to 5 µM | 0.05 to 0.5 µM | –
13 | 4-[1-Amino-2-(2-ethoxy- benzylcarbamoyl)-ethyl]- N-pyridin-4-yl-benzamide [Compound 237] | – | – | 0.5 to 5 µM | 0.05 to 0.5 µM | –
14 | 4-[1-Amino-2-(2-methoxy- benzylcarbamoyl)-ethyl]- N-pyridin-4-yl-benzamide [Compound 236] | – | – | 0.5 to 5 µM | 0.05 to 0.5 µM | –
15 | 4-[1-Amino-2-(3,4-dichloro- 6-methyl-benzylcarbamoyl)- ethyl}-N-pyridin-4-yl- benzamide [Compound 254] | – | – | 0.5 to 5 µM | 0.05 to 0.5 µM | –
16 | 4-[1-Amino-2-(4-thiophen-2- yl-benzylcarbamoyl)-ethyl]- N-pyridin-4-yl-benzamide [Compound 235] | – | – | 5 to 50 µM | 0.05 to 0.5 µM | –
17 | 4-[1-Amino-2-(benzyl- phenethyl-carbamoyl)-ethyl]- N-pyridin-4-yl-benzamide [Compound 226] | – | – | 0.5 to 5 µM | 0.05 to 0.5 µM | –
18 | 4-[1-Amino-2-(methyl- phenylacetyl-amino)-ethyl]- N-pyridin-4-yl-benzamide [Compound 420] | 5 to 50 µM | 0.5 to 5 µM | – | – | –
19 | 4-[1-Amino-2-(phenethyl- phenyl-carbamoyl)-ethyl]-N- pyridin-4-yl-benzamide [Compound 286] | – | – | 0.5 to 5 µM | 0.05 to 0.5 µM | –
20 | 4-[1-amino-2-(2-morpholin- 4-yl-ethylcarbamoyl)-ethyl]- N-pyridin-4-yl-benzamide [Compound 177] | – | – | 5 to 50 µM | 0.05 to 0.5 µM | –
21 | 4-[1-amino-2-(2-pyrazol-1-yl- ethylcarbamoyl)-ethyl]-N- pyridin-4-yl-benzamide [Compound 312] | – | – | 0.5 to 5 µM | 0.05 to 0.5 µM | –
